Measurements taken from patent US20240024279A1, “METHODS FOR REDUCING THE WEIGHT LOSS OR INCREASING THE WEIGHT OF A FELINE IN NEED THEREOF” (INCREVET, INC., priority 2019, published 2024).
Entries after “also recorded” stand apart in the source; their conditions may differ.

Experiments:
obese cats = settings: velagliflozin group, 1 mg/kg in gelatin capsules, cited from earlier work
[1] = system: healthy purpose-bred cats; test: Urinary glucose excretion in healthy purpose-bred cats after once-daily oral velagliflozin capsules for three days; type: in vivo, cat; settings: gelatin capsules once a day for three days, urine
Experimental: Velagliflozin (2-(4-cyclopropylbenzyl)-4-((2S,3R,4R,5S,6R)-3,4,5-trihydroxy-6-(hydroxymethyl)tetrahydro-2H-pyran-2-yl)benzonitrile, CAS number 946525-65-1; Compound 1) can be prepared by a variety of means, including as described in US2015/0164856A1 and is commercially available, for example as catalog number HY-109018 from MedChemExpress. Velagliflozin formulated in gelatin capsules was administered to healthy purpose-bred cats once a day for three days and the urinary glucose excretion recorded over the three consecutive 24-hour periods following dosing. Velagliflozin was administered at three dose levels: 1 mg, 3 mg and 10 mg per cat per day. The mean daily glucose excretion over three days was 2527 mg, 3601 mg and 5256 mg for mean dosages of 0.318 mg/kg, 0.953 mg/kg and 3.071 mg/kg, respectively.

[2] = system: client-owned cats diagnosed with diabetes mellitus; test: Field effectiveness study in client-owned cats with diabetes mellitus; type: in vivo, cat; settings: diabetic cats, oral once daily, day 0 to day 56, low-carbohydrate diet
Experimental: In a field effectiveness study, client-owned cats diagnosed with diabetes mellitus based on: i) two separate fasting (>6 h) blood glucose measurements >250 mg dL^−1; ii) glucosuria; iii) fructosamine >25% above the upper limit of normal for the testing laboratory, and iv) one or more of the following: polyuria/polydipsia, polyphagia and/or weight loss (documented in the cat's medical records) can be enrolled. Cats with suspected diabetes mellitus can be evaluated during visit 1 (within 7 days prior to day 0). Eligible cats can be enrolled during visit 2 (day 0) and management can be initiated using velagliflozin administered orally once daily. Cats can be prescribed a low-carbohydrate diet. Cats would return to the clinic for evaluation of glycemic control during visits 3 (day 14±3), 4 (day 28±3), and 5 (day 56±3). […] A cat can be brought back to the clinic at any time for unscheduled visits if such visits are determined to be necessary by the owner or investigator. Eight-hour blood glucose curves (blood samples collected every 2 h±15 min for 8 h) can be conducted at every visit starting with visit 2 (day 0) and blood glucose can be measured using an AlphaTRAK 2 glucometer (Abbott Laboratories). […] A central laboratory would be used to evaluate all clinical pathology samples (blood, serum, and urine) that are not analyzed in the clinic for blood glucose curves. […]

[3] = system: experimental diabetes in dogs; settings: pancreatectomized animals in full glycosuria; cited from earlier work
[4] = most species; cited from earlier work
[5] = system: experimental diabetes in cats; settings: cats with experimental diabetes, subcutaneous injection of a suspension in olive oil; cited from earlier work

SMILES | body weight at end of treatment (obese cats; after the course of treatment) [kg] | food intake at end of treatment (obese cats; after the course of treatment) [g] | body weight at start of treatment (obese cats; before treatment) [kg] | food intake at start of treatment (obese cats; before treatment) [g] | mean daily glucose excretion over three days ([1]; 1 mg per cat per day, mean dosage 0.318 mg/kg) [mg] | mean daily glucose excretion over three days ([1]; 3 mg per cat per day, mean dosage 0.953 mg/kg) [mg] | mean daily glucose excretion over three days ([1]; 10 mg per cat per day, mean dosage 3.071 mg/kg) [mg] | body weight change [2] | owner-evaluated clinical signs (polydipsia, polyphagia, polyuria) [2] | effect on hyperglycemia [3] | half-life [4] | effect on hyperglycemia [5]
N#Cc1ccc([C@@H]2O[C@H](CO)[C@@H](O)[C@H](O)[C@H]2O)cc1Cc1ccc(C2CC2)cc1 [Velagliflozin, 2-(4-cyclopropylbenzyl)-4-((2S,3R,4R,5S,6R)-3,4,5-trihydroxy-6-(hydroxymethyl)tetrahydro-2H-pyran-2-yl)benzonitrile] | 7.0 ± 1.4 | 58 ± 11 | 7.2 ± 1.5 | 57 ± 8 | 2527 | 3601 | 5256 | Weight gain and reduction in weight loss; also recorded: increase the average weight of a cat or reduce the weight loss of a cat | improvement in polydipsia, polyphagia and polyuria |  |  | 
O=C(CCc1ccc(O)cc1)c1c(O)cc(O)cc1O[C@@H]1O[C@H](CO)[C@@H](O)[C@H](O)[C@H]1O [phlorizin] |  |  |  |  |  |  |  |  |  | the hyperglycemia disappears | short half-life | dramatic reduction of hyperglycemia
